# Source: patent US20260008783A1, “MODULATORS OF FSHR AND USES THEREOF” (Celmatix Inc., priority 2022, published 2026)
# Target: T1, Follicle Stimulating Hormone Receptor (FSHR) (Homo sapiens, UniProt P23945)
# T1 construct: HA (N); expressed in transfected cells; host or cells: CHO-K1, transient transfection, pHM6 vector (CMV promoter)
# T1 sequence (P23945 18-695): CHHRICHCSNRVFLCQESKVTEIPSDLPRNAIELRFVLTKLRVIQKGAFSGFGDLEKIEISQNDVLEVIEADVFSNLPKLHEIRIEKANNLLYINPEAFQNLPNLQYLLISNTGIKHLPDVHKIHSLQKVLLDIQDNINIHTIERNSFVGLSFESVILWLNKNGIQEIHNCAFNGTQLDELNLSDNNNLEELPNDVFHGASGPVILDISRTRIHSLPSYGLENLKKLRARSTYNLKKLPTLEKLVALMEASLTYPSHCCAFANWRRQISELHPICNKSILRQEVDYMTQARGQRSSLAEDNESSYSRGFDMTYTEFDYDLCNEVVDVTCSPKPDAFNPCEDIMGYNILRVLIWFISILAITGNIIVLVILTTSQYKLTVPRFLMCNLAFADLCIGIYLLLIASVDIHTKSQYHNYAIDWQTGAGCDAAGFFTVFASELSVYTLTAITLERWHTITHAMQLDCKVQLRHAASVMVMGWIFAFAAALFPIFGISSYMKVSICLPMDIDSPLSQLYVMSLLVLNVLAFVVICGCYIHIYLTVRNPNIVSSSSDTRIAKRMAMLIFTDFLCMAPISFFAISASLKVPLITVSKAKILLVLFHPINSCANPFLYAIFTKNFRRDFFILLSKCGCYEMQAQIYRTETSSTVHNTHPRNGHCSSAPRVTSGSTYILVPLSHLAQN
# Experiment: HTRF cAMP agonist assay, FSHR, transiently transfected CHO-K1 cells
# Type: cell-based
# Conditions: CHO-K1 cells transiently expressing human FSHR, read-out: IC50 FSHR LANCE CAMP
row,IC50 [nM],Structure (SMILES)
1,5380,O=C(c1nn(-c2ccccn2)c2c1CCc1ccc(-c3cccnc3)cc1-2)N1CCNC(=O)C12CC2 [Compound 8-81]
2,79.8,COc1cc2c(cc1-c1cncc(C(N)=O)c1)-c1c(c(C(=O)N3CCNC(=O)C3)nn1-c1cc(Cl)cc(Cl)c1)CC2 [Compound 8-82]
3,38.9,COc1cc2c(cc1-c1cncc(C(N)=O)c1)-c1c(c(C(=O)N3CCCC(=O)C3)nn1-c1cc(Cl)cc(Cl)c1)CC2 [Compound 8-83]
4,32.4,CCC1C(=O)NCCN1C(=O)c1nn(-c2cc(Cl)cc(Cl)c2)c2c1CCc1cc(OC)c(-c3cncc(C(N)=O)c3)cc1-2 (stereo not shown) [Compound 8-84]
5,24.5,COc1cc2c(cc1-c1cncc(C(N)=O)c1)-c1c(c(C(=O)N3CC(=O)NCC3(C)C)nn1-c1cc(Cl)cc(Cl)c1)CC2 [Compound 8-86]
6,8.14,COc1cc2c(cc1-c1cncc(C(N)=O)c1)-c1c(c(C(=O)N3[C@@H](C)CNC(=O)[C@@H]3C)nn1-c1cc(Cl)cc(Cl)c1)CC2 [Compound 8-87]
7,18.9,COc1cc2c(cc1-c1cncc(C(N)=O)c1)-c1c(c(C(=O)N3CCNC(=O)C34CC4)nn1-c1cc(Cl)cc(Cl)c1)CC2 [Compound 8-89]
8,2.15,COc1cc2c(cc1-c1cncc(C(N)=O)c1)-c1c(c(C(=O)N3CCC(O)C3(C)C)nn1-c1cc(Cl)cc(Cl)c1)CC2 (stereo not shown) [Compound 8-90A]
9,6.69,COc1cc2c(cc1-c1cncc(C(N)=O)c1)-c1c(c(C(=O)N3CCC(=O)C3(C)C)nn1-c1cc(Cl)cc(Cl)c1)CC2 [Compound 8-90]
10,1790,COc1cc2c(cc1-c1cncc(C(N)=O)c1)-c1[nH]nc(C(=O)N3CCOCC3(C)C)c1CC2 [Compound 9-01]
11,3.81,CC1(C)COCCN1C(=O)c1nn(-c2cc(Cl)cc(Cl)c2)c2c1CCc1ccc(-c3cncc(C(N)=O)c3)cc1-2 [Compound 9-02]
12,6.99,"CC1(C)COCCN1C(=O)c1nn(-c2cc(Cl)cc(Cl)c2)c2c1CCc1cc(O)c(-c3cncc(C(N)=O)c3)cc1-2 [Compound 9-04, 5-[1-(3,5-dichlorophenyl)-3-(3,3-dimethylmorpholine-4-carbonyl)-7-hydroxy-4,5-dihydrobenzo[g]indazol-8-yl]pyridine-3-carboxamide]"
13,45.2,COc1cc2c(cc1-c1cncc(C(N)=O)c1)-c1c(c(C(=O)N(C)C)nn1-c1cc(Cl)cc(Cl)c1)CC2 [Compound 9-05]
14,0.976,COc1cc2c(cc1-c1cncc(C(N)=O)c1)-c1c(c(CN3CCOCC3(C)C)nn1-c1cc(Cl)cc(Cl)c1)CC2 [Compound 9-06]
15,5.98,COc1cc2c(cc1-c1cccnc1)-c1c(c(C(=O)N3CCOCC3(C)C)nn1-c1cc(Cl)cc(Cl)c1)CC2 [Compound 9-07]
16,2480,COc1ccc2c(c1)CCc1c(C(=O)N3CCOCC3(C)C)nn(-c3cc(Cl)cc(Cl)c3)c1-2 [Compound 9-08A]
17,16.2,COc1cc2c(cc1OC(C)C)-c1c(c(C(=O)N3CCOCC3(C)C)nn1-c1cc(Cl)cc(Cl)c1)CC2 [Compound 9-08]
18,830,CCn1nc(C(=O)N2CCOCC2(C)C)c2c1-c1cc(-c3cncc(C(N)=O)c3)c(OC)cc1CC2 [Compound 9-11]
19,701,COc1cc2c(cc1-c1cncc(C(N)=O)c1)-c1c(c(C(=O)N3CCOCC3(C)C)nn1C(C)C)CC2 [Compound 9-12]
20,92.4,"CCCn1nc(C(=O)N2CCOCC2(C)C)c2c1-c1cc(-c3cncc(C(N)=O)c3)c(OC)cc1CC2 [Compound 9-13, 5-[3-(3,3-dimethylmorpholine-4-carbonyl)-7-methoxy-1-propyl-4,5-dihydrobenzo[g]indazol-8-yl]pyridine-3-carboxamide]"
21,14.3,COc1cc2c(cc1-c1cncc(C(N)=O)c1)-c1c(c(C(=O)N3CCOCC3(C)C)nn1CC(C)C)CC2 [Compound 9-14]
22,42,"CCCCn1nc(C(=O)N2CCOCC2(C)C)c2c1-c1cc(-c3cncc(C(N)=O)c3)c(OC)cc1CC2 [Compound 9-15, 5-[1-butyl-3-(3,3-dimethylmorpholine-4-carbonyl)-7-methoxy-4,5-dihydrobenzo[g]indazol-8-yl]pyridine-3-carboxamide]"
